# Data taken from US20030175680A1, “Methods of treating and preventing bone loss” (priority 2002, published 2003).
# Entries after “also recorded” stand apart in the source; their conditions may differ.
# Key:
# [1] = tested on: human mesenchymal stem cells (hMSC); assay: Alkaline phosphatase activity in hMSC cultures induced to differentiate into osteoblasts; assay type: cell-based; conditions: for normalized activity of alkaline phosphatase: hMSC, second experimental set, inhibitors added on Day 1 or Day 11, FIG. 6; for alkaline phosphatase activity: hMSC cultured 9 days with 5-LO inhibitors, relative to DMSO, FIG. 8
# Experimental: (§1) In order to determine the ability of inhibitors of 15-lipoxygenase to stimulate bone formation and bone accretion, the ability of the 15-LO inhibitors to promote measures of differentiation of stem cells into bone forming cells (osteoblasts) was tested in vitro.
# (§2) Four to eight independent replicate cultures were prepared at each dose level. At the end of the experiments, the cultured cells were harvested by scraping the wells into the appropriate medium for further analysis of either alkaline phosphatase (Sigma kit#104-LL), or cellular calcium (Sigma kit#587-M). Cultures harvested for alkaline phosphatase assessment were harvested by scraping the cells and resuspending into 250 μL Tris buffered 0.1% Triton X-100, and then assayed either fresh or following freeze-thaw. Separate cultures to be assayed for total calcium content were scraped and resuspended into 250 μL 0.5M HCL. Results of these assays were normalized to total cellular DNA, thereby normalizing for differences in cell proliferation. At the same times that cultures were harvested for alkaline phosphatase and calcium, separate replicate cultures were harvested by scraping the cells and resuspending them in 250 μL Hank's Balanced Salt Solution, and cellular number assessed by DNA (DNeasy Tissue Kit, Qiagen cat#69506).
# […] Three different sets of experiments were performed.
# The plates were cultured for 14 days. The DNA-normalized activity of alkaline phosphatase is plotted in FIG. 5.
# (§3) Inhibitors were added either on Day 1 or Day 11. […] The normalized activity of alkaline phosphatase and calcium content is plotted in FIGS. 6 and 7, respectively.
# (§4) As a control for the specificity of 15-LO inhibition for the induction of osteoblast differentiation of stem cells in vitro, the third set of experiments studied eight replicates of standard lipoxygenase inhibitors recognized as more specific to the 5-LO enzyme, rather than the 15-LO enzyme. Zileuton (1,10, 50 uM, prepared at Roche as) Compound 5, AA-861 (1, 10, 50 uM, Sigma #A371 1) and Rev-5901 (15 uM, Sigma #R5523) were prepared fresh every 2-3 days and tested in the human osteoblast precursor cells.
# [2] = tested on: human mesenchymal stem cells (hMSC); assay: Total calcium content of hMSC cultures induced to differentiate into osteoblasts; assay type: cell-based; conditions: for calcium content: hMSC, second experimental set, inhibitors added on Day 1 or Day 11, FIG. 7; for culture calcium deposition (total calcium content): hMSC cultured 16 days with 5-LO inhibitors, relative to DMSO or 1,25-Vitamin D3, FIG. 9
# Experimental: as §1, §2, §3, §4
# [3] = tested on: Lck-IL4 transgenic mice; assay: Lck-IL4 transgenic mouse model of osteoporosis: whole body and femoral bone parameters; assay type: in vivo; conditions: Lck-IL4 mice fed Compound 2 150 mg/kg bid in food 84 days vs untreated Lck-IL4 controls
# Experimental: The ability of 15-lipoxygenase inhibitors to promote bone formation in vivo was assessed by measuring the ability of the inhibitors to improve bone parameters in a mouse model of osteoporosis. Constitutive expression of an Interleukin-4 transgene from the Lck gene promoter (Lck-IL4) in C57BL/6 mice results in a severe bone phenotype mimicking osteoporosis.
# Mice were permitted access to one-half the daily food intake twice daily at approximately 12 h intervals and diet intake was monitored daily. Water was available ad libitum. The control groups received the same diet without Compound 2. All groups consumed food equally well over the course of the experiment. […]
# Bone mineral measurements were determined by dual energy X-ray absorptiometry (DEXA). […]
# The cross-sectional geometric parameters of the mid-diaphysis of the femora were determined using a portable x-ray microtomograph (Model 1074, Skyscan, Antwerp, Belgium). Scans were taken at […] intervals, and a slice located at the midpoint of the femur was analyzed for total area (FCSA), cortical area (Ct Ar) and medullary canal area (Ma Ar). In addition, using the pixels contained in the cortical region of the digital image, the radius from the centroid of the cross-section to the outer fiber in the anterior-posterior plane, the areal moment of inertia (Ixx) in the plane of bending and the average cortical thickness (Ct Th) were calculated. […]
# [4] = biological target: 15-LO (UniProt P12530); assay type: biochemical
# Experimental: IC50's may be determined by standard methods. One particular method is a colorimetric assay in which the putative inhibitor is pre-incubated with the 15-LO enzyme for about 10 minutes followed by addition of linoleic acid substrate for an additional 10 minutes. The product, 13-HPODE, is quantitated by coupling the reduction of the hydroperoxylated lipid to the oxidation on N-benzoyl-leucomethylene blue in the presence of hemin at pH 5. The absorbance of the oxidized methylene blue is directly proportional to the amount of 13-HPODE formed by the 15-LO, and can be measured in the presence and absence of inhibitor.
# [5] = tested on: ovariectomized (Ovx) rats; assay: Estrogen deficiency Rat OVX osteopenia assay, BMD; assay type: in vivo
# Experimental: In order to determine the ability of inhibitors of 15-lipoxygenase to stimulate bone formation and bone accretion, [[[5-(5,6-difluoro-1H-indol-2-yl)-2-methoxyphenyl]amino]sulfonyl]-carbamic acid-isobutyl ester, Compound 6, was prepared as described in WO0196298 ) and tested in the standard estrogen deficiency Rat OVX osteopenia assay.
# Three month old rats are ovariectomized (Ovx) and administered 1 mg/kg/day Compound 6 or 0.1 ug/kg/day 1,25-dihydroxy vitamin D3 (positive control, abbreviated Vit. D in Table) by oral gavage once a day starting at 2 weeks post-ovariectomy and continuing for 7 weeks. The dose was increased to 2 mg/kg/day and continued until 11 weeks. Control groups, both sham (rats that were not ovariectomized) and Ovx, received vehicle only. The bone mineral density of the spine and right hip was determined by using the High Resolution Software package on a QDR-4500 Bone Densitometer^□ (Hologic, Walthan, Mass.). The animals were scanned by placing them in a supine position such that the right femur was perpendicular to the main body and the tibia was perpendicular to the femur. […]
# [6] = 3 weeks treatment, 1 mg/kg/day oral gavage
# [7] = 7 weeks treatment, 1 mg/kg/day oral gavage
# [8] = 11 weeks treatment, dose increased to 2 mg/kg/day after 7 weeks, oral gavage
# [9] = 7 weeks treatment, 0.1 ug/kg/day oral gavage (positive control)
# 15-LO, sequence (P12530 whole entry): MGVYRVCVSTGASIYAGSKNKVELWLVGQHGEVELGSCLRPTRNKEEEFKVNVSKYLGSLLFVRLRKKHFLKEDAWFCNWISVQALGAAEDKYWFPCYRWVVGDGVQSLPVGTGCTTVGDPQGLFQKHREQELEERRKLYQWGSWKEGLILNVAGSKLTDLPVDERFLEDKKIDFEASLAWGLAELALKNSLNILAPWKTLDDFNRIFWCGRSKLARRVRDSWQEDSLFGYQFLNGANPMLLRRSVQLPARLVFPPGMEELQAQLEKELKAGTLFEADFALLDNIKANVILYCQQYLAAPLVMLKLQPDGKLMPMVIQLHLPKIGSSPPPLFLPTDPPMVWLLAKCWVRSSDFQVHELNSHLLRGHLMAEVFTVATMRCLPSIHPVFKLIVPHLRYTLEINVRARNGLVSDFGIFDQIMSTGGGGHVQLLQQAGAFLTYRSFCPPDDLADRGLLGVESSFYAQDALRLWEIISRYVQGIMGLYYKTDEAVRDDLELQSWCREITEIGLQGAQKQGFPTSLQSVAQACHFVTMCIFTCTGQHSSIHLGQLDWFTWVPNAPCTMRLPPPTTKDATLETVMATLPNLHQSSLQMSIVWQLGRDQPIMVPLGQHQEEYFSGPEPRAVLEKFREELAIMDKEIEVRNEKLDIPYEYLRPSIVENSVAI
smiles,measurement,setting,value
"c1ccc2c(c1)SCc1c-2[nH]c2ccccc12 [Compound 2, 6,11-dihydro-5-thia-11-aza-benzo[a]fluorene]",normalized activity of alkaline phosphatase,[1],most effective when added on Day 1
same,calcium content,[2],most effective when added on Day 1
same,Femoral Marrow area,[3],−7%
same,Femoral Total area,[3],−4%
"COc1ccc(C(=O)Nc2ccc(Cl)c(Cl)c2)cc1N [Compound 3, 3-amino-N-(3,4-dichlorophenyl)-4-methoxybenzamide]",IC50,[4],~10 nM
same,normalized activity of alkaline phosphatase,[1],most effective when added on Day 11
same,calcium content,[2],most effective when added on Day 11
"CCCCCCC#Cc1ccccc1/C=C/C(=O)O [Compound 4, trans-3-(2-oct-1-ynyl-phenyl)-acrylic acid]",IC50,[4],1000 to 3000 nM
"CC(c1cc2ccccc2s1)N(O)C(N)=O (stereo not drawn) [Compound 5, Zilueton]",IC50 for 15-LO,[4]; result in words,negative control
same,alkaline phosphatase activity,[1]; listed as Zileuton,lack ability to induce; also recorded: lack of a response
same,culture calcium deposition (total calcium content),[2]; listed as Zileuton,lack ability to induce; also recorded: lack of a response
"COc1ccc(-c2cc3cc(F)c(F)cc3[nH]2)cc1NS(=O)(=O)NC(=O)OCC(C)C [Compound 6, [[[5-(5,6-difluoro-1H-indol-2-yl)-2-methoxyphenyl]amino]sulfonyl]-carbamic acid-isobutyl ester]",IC50,[4],25 to 83 nM
same,BMD Lumbar Spine L2-L4,[5]; [6],0.2347 (0.055) gm mineral/cm^2
same,BMD Lumbar Spine L5,[5]; [6],0.2480 gm mineral/cm^2
same,BMD Proximal Femur,[5]; [6],0.2838 (0.103) gm mineral/cm^2
same,BMD Lumbar Spine L2-L4,[5]; [7],0.2474 (0.019) gm mineral/cm^2
same,BMD Lumbar Spine L5,[5]; [7],0.2549 gm mineral/cm^2
same,BMD Proximal Femur,[5]; [7],0.2932 (0.033) gm mineral/cm^2
same,BMD Lumbar Spine L2-L4,[5]; [8],0.2507 (0.009) gm mineral/cm^2
same,BMD Lumbar Spine L5,[5]; [8],0.2626 gm mineral/cm^2
same,BMD Proximal Femur,[5]; [8],0.2986 (0.039) gm mineral/cm^2
same,BMD in the spine,"[5]; at >3 weeks, result in words",increased BMD
same,BMD in the proximal femur,"[5]; at >7 weeks, result in words",increased BMD
CCCCCC(O)c1cccc(OCc2ccc3ccccc3n2)c1 (stereo not drawn) [Rev-5901],alkaline phosphatase activity,[1],lack ability to induce; also recorded: lack of a response
same,culture calcium deposition (total calcium content),[2],lack ability to induce; also recorded: lack of a response
"C=C1/C(=C\C=C2/CCC[C@]3(C)[C@@H]([C@H](C)CCCC(C)(C)O)CC[C@@H]23)C[C@@H](O)C[C@@H]1O [Vit D, 1,25-dihydroxy vitamin D3, reference compound]",BMD Lumbar Spine L2-L4,[5]; [9],0.2628 (0.023) gm mineral/cm^2
same,BMD Lumbar Spine L5,[5]; [9],0.2742 gm mineral/cm^2
